This note sets out measurements from the Deep4Chem optical property database.

A short description of this series: solvent given as SMILES.
[1] abbreviates: in O=P(c1ccccc1)(c1ccccc1)c1ccccc1Oc1ccccc1P(=O)(c1ccccc1)c1ccccc1.

`CCCCC(CC)Cn1c2ccc(C(=C(C#N)C#N)c3ccccc3)cc2c2c(-c3ccc(Br)cc3)c3c(c(-c4ccc(Br)cc4)c21)c1cc(C(=C(C#N)C#N)c2ccccc2)ccc1n3CC(CC)CCCC` (stereo unspecified) registered an emission maximum (in C1CCOC1) of 584 nm; an emission maximum (in CC#N) of 536 nm; an emission maximum (in CCO) of 576 nm; an emission maximum (in CCOC(C)=O) of 582 nm; an emission maximum (in CN(C)C=O) of 535 nm; an emission maximum (in Cc1ccccc1) of 540 nm. Further, the emission maximum runs as follows: (in ClCCl) 597 nm; (in c1ccccc1) 543 nm.
On to `COc1ccc2c3c(cccc13)C(=O)c1ccccc1-2`, for which the emission maximum runs as follows: (in CC#N) 526.87 nm; (in CC(C)=O) 520.02 nm; (in CC(C)O) 541.13 nm; (in CCCCOCCCC) 487.09 nm; (in CCOC(C)=O) 506.07 nm; (in CCOCC) 498.01 nm. Moreover, the emission maximum reads like this: (in CO) 560.85 nm; (in Cc1ccccc1) 500 nm; (in Clc1ccccc1) 507.87 nm; (in N#Cc1ccccc1) 520.02 nm; (in O=C1CCCCC1) 520.02 nm.
`COc1ccc(OC)c(C=O)c1`: the emission maximum runs as follows: (in CC(C)=O) 410 nm; (in CCCO) 458 nm; (in CCO) 459 nm; (in CNC=O) 458 nm; (in CO) 466 nm; (in CS(C)=O) 431 nm. Also, the emission maximum reads like this: (in ClC(Cl)Cl) 427 nm; (in NC=O) 464 nm.
`CC1=C(C#Cc2ccccc2)C2=Cc3c(C#Cc4ccccc4)c(C)c(C)n3[B-](F)(F)[N+]2=C1C` gave an emission maximum (in CC#N) of 579 nm.
Consider `Cc1cc(O)c(C(=O)/C=C/c2cccc(O)c2)c(=O)o1`, for which the emission maximum reads like this: (in CC#N) 523 nm; (in ClCCl) 491 nm.
For the molecule `c1ccc(-n2c3ccccc3c3cc(-c4cccc(-n5c6cccnc6c6c7sc8ccccc8c7ccc65)c4)ccc32)cc1`, the emission maximum (in ClCCl) is 384 nm.
Regarding `COC(=O)CNC(=O)CCNc1cccc2ccccc12`, the emission maximum (in CCO) was determined as 417 nm.
The molecule `C[n+]1ccc2c(ccc3c[n+](C)ccc32)c1` showed an emission maximum (in CC#N) of 407 nm.
`Cc1ccc2c(c1)C1(c3ccccc3-c3ccccc31)c1cc(C)ccc1N2c1ccc(-c2nc(-c3ccccc3)cc(-c3ccccc3)n2)cc1`: the emission maximum runs as follows: (in Cc1ccccc1) 458 nm; (in O=P(c1ccccc1)(c1ccccc1)c1ccc2oc3ccc(P(=O)(c4ccccc4)c4ccccc4)cc3c2c1) 464 nm.
For `CC[N+](CC)=c1ccc2cc3c(oc-2c1)-c1ccc(N(C)C)cc1CC3`, the emission maximum is on record as 644 nm (in CCO), 642 nm (in ClCCl) and 641 nm (in O).
Take `c1ccc2c(-c3cc4c(ccc5sccc54)s3)cccc2c1`: where the note is “in ClCCl”, the emission maximum is listed as 405 nm.
On to `CC(=O)Nc1ccc2c3cccc4cccc(c5cccc1c52)c43`, for which the emission maximum (in C1COCCO1) was found to be 471 nm, the emission maximum (in CC#N) is on record as 471 nm, the emission maximum (in CCCCOCCCC) came to 471 nm and the emission maximum (in CCOC(C)=O) is recorded as 471 nm.
For the setting “in ClCCl”, `CCc1cccc(CC)c1-c1c2ccccc2c(-c2c(CC)cccc2CC)c2cc3ccccc3cc12` had an emission maximum of 501 nm.
Take `CC(C)CCCCN1CCc2c1ccc1c3c(ccc21)C(=O)CCC3`: the emission maximum is, setting by setting: (in C1CCCCC1) 433 nm; (in CC#N) 489 nm; (in CC(C)O) 512 nm; (in CCC(C)=O) 481 nm; (in CCO) 522 nm; (in CCOC(C)=O) 467 nm. In addition, the emission maximum runs as follows: (in CS(C)=O) 472 nm; (in Cc1ccccc1) 452 nm; (in ClCCl) 472 nm; (in Clc1ccccc1) 462 nm.
The molecule `CC(C)(C)c1ccc2c3c(c4ccc(C(C)(C)C)cc4c2c1)=[N+]1C(=C(c2ccccc2)c2c(Br)c4c5ccc(C(C)(C)C)cc5c5cc(C(C)(C)C)ccc5c4n2[B-]1(F)F)C=3Br` displayed an emission maximum (in C1CCCCC1) of 711 nm; an emission maximum (in C1CCOC1) of 715 nm; an emission maximum (in CC#N) of 714 nm; an emission maximum (in Cc1ccccc1) of 715 nm; an emission maximum (in ClCCl) of 717 nm.
For the setting “in ClCCl”, `C1=CC2=CC=CC3C=c4c(cc5cccc6cccc4c65)C(=C1)C23` (stereo unspecified) gave an emission maximum of 574 nm.
`Cc1ccc(C#Cc2ccc3ccc(=O)oc3c2)cc1` yielded an emission maximum (in CC#N) of 440 nm.
Same read-out and setting: with `C(=C\c1nc2c3ccccc3c3ccccc3c2o1)/c1ccccc1` the figure was 434 nm.
In the case of `Cc1oc2c(Cl)cc3c(C)cc(=O)oc3c2c1C`, the emission maximum reads like this: (in C1CCCCC1) 403 nm; (in C1COCCO1) 416 nm; (in CC#N) 431 nm; (in CCO) 440 nm; (in OCC(F)(F)F) 469 nm.
For `N#Cc1cc(C#N)cc(-n2c3ccccc3c3cc(-c4ccc5c(c4)c4ccccc4n5-c4cc(C#N)cc(C#N)c4)ccc32)c1`, the emission maximum by setting is: (in Cc1ccccc1) 470 nm; under setting [1], 470 nm.
In the case of `Brc1cnc(-c2ccncc2)s1`, the emission maximum (in CO) is recorded as 396 nm.
In the case of `O=C1c2cc(-n3c4ccccc4c4ccccc43)c(-n3c4ccccc4c4ccccc43)cc2C(=O)N1c1ccccc1`, the emission maximum (in Cc1ccccc1) turned out to be 510 nm.
For `Fc1ccc(C2=NC(c3ccccc3)C(N(c3ccccc3)c3ccccc3)S2)cc1` (stereo unspecified), the emission maximum (in ClC(Cl)Cl) is reported as 461 nm.
`O=C1CC(=O)Nc2cc(C(=O)O)ccc2N1` gave an emission maximum (in CS(C)=O) of 407 nm.
`F[B-]1(F)OC(c2ccc(C(F)(F)F)cc2)=Cc2c3ccccc3c3ccccc3[n+]21` returned an emission maximum (in ClC(Cl)Cl) of 446 nm.
Regarding `CCCC1=Cc2nc1ccc1[nH]c(cc1CCC)c1nc(c(N)cc3[nH]c2cc3CCC)C(CCC)=C1`, for the setting “in Cc1ccccc1”, the emission maximum came out at 729 nm.
Regarding `C#Cc1ccc2ccc3cccc4ccc1c2c34`, the emission maximum is, setting by setting: (in C1CCCCC1) 383 nm; (in CC#N) 384 nm; (in CO) 383 nm; (in ClCCl) 384 nm.
Consider `Cc1cc(C)c(B(c2ccc(-c3ccc4ccc5cccc6ccc3c4c56)cc2)c2c(C)cc(C)cc2C)c(C)c1`, for which, for the setting “in Cc1ccccc1”, the emission maximum is 431 nm.
As for `c1ccc(-c2ccc(-c3nc(-n4c5ccccc5c5ccc6c7ccccc7n(-c7ccccc7)c6c54)nc(-n4c5ccccc5c5ccc6c7ccccc7n(-c7ccccc7)c6c54)n3)cc2)cc1`, the emission maximum by setting is: (in Cc1ccccc1) 495 nm; under setting [1], 492 nm.
As to `COc1ccc(Oc2ccc3c4c(cccc24)C(=O)N(c2c(C(C)C)cccc2C(C)C)C3=O)cc1`, the emission maximum (in ClCCl) worked out at 434 nm.
`COCCOCCOc1ccc(OCCOCCOC)c(C=O)c1`: the emission maximum by setting is: (in CC(C)(C)O) 444 nm; (in CC(C)CO) 453 nm; (in CC(C)O) 454 nm; (in CCCCO) 456 nm; (in CCCO) 460 nm; (in CCO) 461 nm. Also, the emission maximum was 424 nm (in CN(C)C=O); 458 nm (in CNC=O); 468 nm (in CO); 463 nm (in NC=O); 485 nm (in O).
`CC(C)(C)c1cccc2c1oc1nc3oc4cc(-n5c6ccccc6c6ccccc65)ccc4c3cc12`: the emission maximum (in ClC(Cl)Cl) was 397 nm.
Take `COc1ccc(-c2nc(-c3ccccc3)c(-c3ccccc3)[nH]2)cc1`: where the note is “in CO”, the emission maximum is 395 nm.
Take `c1ccc(-c2nc3ccccc3nc2-c2ccccc2)cc1`: the emission maximum runs as follows: (in C1CCOC1) 401 nm; (in CC#N) 399 nm; (in CCCCCC) 396 nm; (in CN(C)C=O) 403 nm; (in Cc1ccccc1) 400 nm; (in ClC(Cl)Cl) 398 nm.
In turn, `CC(C)CN1C(=O)/C(=C/c2ccc(C#N)cc2)C=C1c1ccccc1` gave an emission maximum (in C1COCCO1) of 598 nm.
In the case of `CC1(C)c2ccccc2N(c2ccc3c(c2)c(=O)c2cccc4c(=O)c5cc(N6c7ccccc7C(C)(C)c7ccccc76)ccc5n3c24)c2ccccc21`, under “in Cc1ccccc1”, the emission maximum amounted to 549.35 nm.
On to `FC(F)(F)c1ccc(-c2nnc(-c3cc(-n4c5ccccc5c5ccccc54)c(-n4c5ccccc5c5ccccc54)cc3-c3nnc(-c4ccc(C(F)(F)F)cc4)o3)o2)cc1`, for which the emission maximum runs as follows: (in CC#N) 544.97 nm; (in Cc1ccccc1) 487 nm; (in ClCCl) 519.92 nm.
For the molecule `CCCc1ccc(C#Cc2cc(C#Cc3ccc(N(C)C)cc3)c3ccc4c(C#Cc5ccc(N(C)C)cc5)cc(C#Cc5ccc(CCC)cc5)c5ccc2c3c54)cc1`, for the setting “in ClCCl”, the emission maximum is 591 nm.
Under “in CC#N”, `N#Cc1nn(-c2cc(F)cc(F)c2)nc1N1CCCC1` displayed an emission maximum of 435 nm.
Molecule `CC1=CC(/C=C/c2ccc(OCCCN=[N+]=[N-])cc2)=[N+]2C1=C(c1ccc(N(C)C)cc1)c1c(C)cc(C)n1[B-]2(F)F` displayed an emission maximum (in CO) of 586 nm.
`COc1nc(Nc2cc3ccc4cccc5ccc(c2)c3c45)nc(OC)n1`: the emission maximum reads like this: (in CC#N) 393 nm; (in CCCCOCCCC) 393 nm; (in CO) 392 nm.
Under “in ClCCl”, `COc1ccc2c(c1)CCC1=C(C#Cc3cc4ccccc4c4ccccc34)O[B-](F)(F)[O+]=C12` displayed an emission maximum of 500 nm.
Molecule `F[B-]1(F)OC(c2ccccc2)=Cc2c3ccccc3cc[n+]21` came in with an emission maximum (in ClC(Cl)Cl) of 463.2 nm.
On to `CCOC(=O)C1=C(C(=O)OCC)C2(c3cc(Cl)ccc3-c3ccc(Cl)cc32)C2(/C=C/c3ccccc3)c3cc(OC)c(OC)cc3CCN12` (stereo unspecified), for which, under “in ClCCl”, the emission maximum was 456 nm.
Take `CC(C)(C)c1ccc2c(c1)sc1[n+]2[B-](F)(F)n2c(c3cccc4cccc2c43)=N1`: the emission maximum by setting is: (in C1CCOC1) 504 nm; (in CC#N) 502 nm; (in CCCCCC) 504 nm; (in Cc1ccccc1) 506 nm; (in ClCCl) 534 nm.
